Data from ChEMBL document CHEMBL1158963, “Taxinine M, a new tetracyclic taxane from Taxus brevifolia” (J Nat Prod, 1991).
In brackets after ≈: the same amount, converted by molar mass.

Test: Toxicity in brine shrimp after 24 hrs
Type: organism-based
Settings: artemia, in vivo
`C/C=C(\C)C(=O)N[C@@H](c1ccccc1)[C@@H](O)C(=O)O[C@H]1C[C@@]2(O)[C@@H](OC(=O)c3ccccc3)[C@@H]3[C@]4(OC(C)=O)CO[C@@H]4C[C@H](O)[C@@]3(C)C(=O)[C@H](OC(C)=O)C(=C1C)C2(C)C` [CEPHALOMANNINE] showed an LC50 at 24 h of 0.81 µg/mL (≈ 0.974 µM). In the case of `CC(=O)O[C@H]1C(=O)[C@@]2(C)[C@H]([C@H](OC(=O)c3ccccc3)[C@]3(O)C[C@H](OC(=O)[C@H](O)[C@@H](NC(=O)c4ccccc4)c4ccccc4)C(C)=C1C3(C)C)[C@]1(OC(C)=O)CO[C@@H]1C[C@@H]2O` [PACLITAXEL], the LC50 at 24 h is reported as 0.28 µg/mL (≈ 0.328 µM). `C=C1[C@@H](O)C[C@H](OC(C)=O)[C@@]2(COC(=O)c3ccccc3)[C@@H](OC(C)=O)[C@H](OC(C)=O)[C@@]3(O)[C@]4(C)OC[C@]3(C)C(CC4=O)[C@@H](OC(C)=O)[C@H]12` [TAXININE M] showed an LC50 at 24 h of 620 µg/mL (≈ 903 µM).
